Assay results from patent US20250213532A1, “5-METHOXY-N,N-[…][…] THE TREATMENT OF BIPOLAR DISORDER” (GH RESEARCH IRELAND LIMITED, priority 2022, published 2025).

Key:
[1] = system: patients with treatment-resistant major depressive disorder (TRD); test: Phase 1/2 clinical trial of inhaled 5-MeO-DMT in TRD: BPRS; type: in vivo, human; settings: for BPRS Emotional Withdrawal percentage improvement / BPRS Emotional Withdrawal score (sum): baseline 13
Source text: The Brief Psychiatric Rating Scale (BPRS) is intended to screen for psychiatric symptoms in a structured fashion. The scale is one of the most widely used scales to measure psychotic symptoms and was first published in 1962. The design has later been updated.
The 18 items (somatic concern, anxiety, emotional withdrawal, conceptual disorganization, guilt feelings, tension, mannerisms and posturing, grandiosity, depressive mood, hostility, suspiciousness, hallucinatory behaviour, motor retardation, uncooperativeness, unusual thought content, blunted affect, excitement and disorientation) are scored and each item is rated on a scale of 1-7.
Based on the answers and the behaviours observed, a physician or psychologist will complete the BPRS form by ranking the severity of each area using a scale of one to seven: a score of one means an absence of signs or symptoms up to a score of seven that means it is present and at a severe level. If it is not possible to rate the specific signs or symptoms, a score of 0 or “Not assessed” is recorded.
Patients were assigned to different groups.
This trial was designed in two parts.

[2] = system: patients with clinically diagnosed postpartum depression (PPD); test: Clinical trial of inhaled 5-MeO-DMT in postpartum depression: MADRS; type: in vivo, human; settings: one PPD patient; for MADRS Concentration Difficulties improvement / MADRS Concentration Difficulties score / MADRS Reduced appetite improvement / MADRS Reduced appetite score / MADRS Suicidal Thoughts improvement / MADRS Suicidal Thoughts score: baseline 0; for MADRS Inability to Feel improvement / MADRS Inability to Feel score / MADRS Lassitude improvement / MADRS Lassitude score: baseline 3; for MADRS Pessimistic Thoughts improvement / MADRS Pessimistic Thoughts score / MADRS Reported sadness improvement / MADRS Reported sadness score: baseline 4; for MADRS Apparent sadness improvement / MADRS Apparent sadness score / MADRS Inner Tension improvement / MADRS Inner Tension score / MADRS Reduced Sleep improvement / MADRS Reduced Sleep score: baseline 5
Source text: The patient completed all planned visit days.

[3] = 12 mg n=4, 3 hours, baseline 11
[4] = 12 mg n=4, 3 hours, baseline 14
[5] = 12 mg n=4, 3 hours, baseline 18
[6] = 12 mg n=4, 3 hours, baseline 25

## COc1ccc2[nH]cc(CCN(C)C)c2c1 [5-MeO-DMT]
[1]; [3]
  BPRS Blunted Affect percentage improvement: 27%
  BPRS Blunted Affect score (sum): 8
[1]; 12 mg n=4, 3 hours
  BPRS Emotional Withdrawal percentage improvement: 15%
  BPRS Emotional Withdrawal score (sum): 11
[1]; [4]
  BPRS Tension percentage improvement: 36%
  BPRS Tension score (sum): 9
[1]; [5]
  BPRS Guilt Feelings percentage improvement: 50%
  BPRS Guilt Feelings score (sum): 9
[1]; [6]
  BPRS Anxiety percentage improvement: 56%
  BPRS Anxiety score (sum): 11
[1]; 12 mg n=4, Day 1, baseline 11
  BPRS Blunted Affect score (sum): 6
[1]; 12 mg n=4, Day 1
  BPRS Emotional Withdrawal score (sum): 8
[1]; 12 mg n=4, Day 1, baseline 14
  BPRS Tension percentage improvement: 57%
  BPRS Tension score (sum): 6
[1]; 12 mg n=4, Day 1, baseline 18
  BPRS Guilt Feelings percentage improvement: 72%
  BPRS Guilt Feelings score (sum): 5
[1]; 12 mg n=4, Day 1, baseline 25
  BPRS Anxiety percentage improvement: 76%
  BPRS Anxiety score (sum): 6
[1]; 12 mg n=4, Day 7, baseline 11
  BPRS Blunted Affect score (sum): 5
[1]; 12 mg n=4, Day 7
  BPRS Emotional Withdrawal score (sum): 6
[1]; 12 mg n=4, Day 7, baseline 14
  BPRS Tension percentage improvement: 57%
  BPRS Tension score (sum): 6
[1]; 12 mg n=4, Day 7, baseline 18
  BPRS Guilt Feelings percentage improvement: 72%
  BPRS Guilt Feelings score (sum): 5
[1]; 12 mg n=4, Day 7, baseline 25
  BPRS Anxiety percentage improvement: 76%
  BPRS Anxiety score (sum): 6
[1]; IDR n=8, 3 hours
  BPRS Emotional Withdrawal percentage improvement: 38%
  BPRS Emotional Withdrawal score (sum): 8
[1]; IDR n=8, 3 hours, baseline 15
  BPRS Blunted Affect percentage improvement: 27%
  BPRS Blunted Affect score (sum): 11
[1]; IDR n=8, 3 hours, baseline 16
  BPRS Tension percentage improvement: 31%
  BPRS Tension score (sum): 11
[1]; IDR n=8, 3 hours, baseline 34
  BPRS Guilt Feelings percentage improvement: 59%
  BPRS Guilt Feelings score (sum): 14
[1]; IDR n=8, 3 hours, baseline 37
  BPRS Anxiety percentage improvement: 49%
  BPRS Anxiety score (sum): 19
[1]; IDR n=8, Day 1
  BPRS Emotional Withdrawal score (sum): 8
[1]; IDR n=8, Day 1, baseline 15
  BPRS Blunted Affect score (sum): 8
[1]; IDR n=8, Day 1, baseline 16
  BPRS Tension percentage improvement: 31%
  BPRS Tension score (sum): 11
[1]; IDR n=8, Day 1, baseline 34
  BPRS Guilt Feelings percentage improvement: 68%
  BPRS Guilt Feelings score (sum): 11
[1]; IDR n=8, Day 1, baseline 37
  BPRS Anxiety percentage improvement: 57%
  BPRS Anxiety score (sum): 16
[1]; IDR n=8, Day 7
  BPRS Emotional Withdrawal score (sum): 8
[1]; IDR n=8, Day 7, baseline 15
  BPRS Blunted Affect score (sum): 8
[1]; IDR n=8, Day 7, baseline 16
  BPRS Tension percentage improvement: 38%
  BPRS Tension score (sum): 10
[1]; IDR n=8, Day 7, baseline 34
  BPRS Guilt Feelings percentage improvement: 71%
  BPRS Guilt Feelings score (sum): 10
[1]; IDR n=8, Day 7, baseline 37
  BPRS Anxiety percentage improvement: 54%
  BPRS Anxiety score (sum): 17
[2]
  MADRS remission (total score equal or less than 10): fulfilled standard criteria
  MADRS response (at least 50% improvement from baseline): fulfilled standard criteria
[2]; 2 hr
  MADRS Concentration Difficulties improvement: 0
  MADRS Concentration Difficulties score: 0
  MADRS Reduced appetite improvement: 0
  MADRS Reduced appetite score: 0
  MADRS Suicidal Thoughts improvement: 0
  MADRS Suicidal Thoughts score: 0
  MADRS Inability to Feel improvement: 3
  MADRS Inability to Feel score: 0
  MADRS Lassitude improvement: 3
  MADRS Lassitude score: 0
  MADRS Pessimistic Thoughts improvement: 4
  MADRS Pessimistic Thoughts score: 0
  MADRS Reported sadness improvement: 4
  MADRS Reported sadness score: 0
  MADRS Apparent sadness improvement: 5
  MADRS Apparent sadness score: 0
  MADRS Inner Tension improvement: 5
  MADRS Inner Tension score: 0
  MADRS Reduced Sleep improvement: 0
  MADRS Reduced Sleep score: 5
[2]; Day 1
  MADRS Concentration Difficulties improvement: 0
  MADRS Concentration Difficulties score: 0
  MADRS Reduced appetite improvement: 0
  MADRS Reduced appetite score: 0
  MADRS Suicidal Thoughts improvement: 0
  MADRS Suicidal Thoughts score: 0
  MADRS Inability to Feel improvement: 3
  MADRS Inability to Feel score: 0
  MADRS Lassitude improvement: 3
  MADRS Pessimistic Thoughts improvement: 4
  MADRS Pessimistic Thoughts score: 0
  MADRS Reported sadness improvement: 4
  MADRS Reported sadness score: 0
  MADRS Apparent sadness improvement: 5
  MADRS Apparent sadness score: 0
  MADRS Inner Tension improvement: 5
  MADRS Inner Tension score: 0
  MADRS Reduced Sleep improvement: 5
  MADRS Reduced Sleep score: 0
[2]; Day 7
  MADRS Concentration Difficulties improvement: 0
  MADRS Concentration Difficulties score: 0
  MADRS Reduced appetite improvement: 0
  MADRS Reduced appetite score: 0
  MADRS Suicidal Thoughts improvement: 0
  MADRS Suicidal Thoughts score: 0
  MADRS Inability to Feel improvement: 3
  MADRS Inability to Feel score: 0
  MADRS Lassitude improvement: 3
  MADRS Lassitude score: 0
  MADRS Pessimistic Thoughts improvement: 4
  MADRS Pessimistic Thoughts score: 0
  MADRS Reported sadness improvement: 4
  MADRS Reported sadness score: 0
  MADRS Apparent sadness improvement: 5
  MADRS Apparent sadness score: 0
  MADRS Inner Tension improvement: 4
  MADRS Inner Tension score: 1
  MADRS Reduced Sleep improvement: 5
  MADRS Reduced Sleep score: 0
[2]; IDR 6 mg then 12 mg
  Durability of clinical response: sustained over the 7-day follow-up period
  Time to clinical response after administration: ≤ 2 h
